In patent US20110086759A1, “CHEMICAL COMPOUNDS” (SYNGENTA CROP PROTECTION, INC., priority 2007, published 2011):

Assays:
Type in all cases: in vivo
Setaria faberi (SETFA) [1] = assay: Pre-emergence biological efficacy, glasshouse pot test; details: 312 h
Method: (§1) Seeds of Alopecurus myosuroides (ALOMY), Setaria faberi (SETFA), Echinochloa crus-galli (ECHCG), Solanum nigrum (SOLNI), Amaranthus retoflexus (AMARE) and Ipomea hederaceae (IPOHE) were sown in standard soil in pots. After cultivation for one day under controlled conditions in a glasshouse (at 24/16° C., day/night; 14 hours light; 65% humidity), the plants were sprayed with an aqueous spray solution derived from the formulation of the technical active ingredient in acetone/water (50:50) solution containing 0.5% Tween 20 (polyoxyethelyene sorbitan monolaurate, CAS RN 9005-64-5) to give a final dose of 1000 or 250 g/ha of test compound.
(§2) The test plants were then grown under controlled conditions in the glasshouse (at 24/16° C., day/night; 14 hours light; 65% humidity) and watered twice daily. After 13 days the test was evaluated (100=total damage to plant; 0=no damage to plant).

[2] = system: Ipomea hederaceae (IPOHE); assay: as above; details: Ipomoea hederacea, 312 h
Method: as §1, §2

Solanum nigrum (SOLNI) [3] = assay: as above; details: 312 h
Method: as §1, §2

[4] = system: Echinochloa crus-galli (ECHCG); assay: as above; details: 312 h
Method: as §1, §2

[5] = system: Amaranthus retoflexus (AMARE); assay: as above; details: Amaranthus retroflexus, 312 h
Method: as §1, §2

[6] = system: Alopecurus myosuroides (ALOMY); assay: as above; details: 312 h
Method: as §1, §2

Setaria faberi (SETFA) [7] = assay: Post-emergence biological efficacy, glasshouse pot test; details: 312 h
Method: as §1, with “8 days” for “one day”
(§3) The test plants were then grown on under controlled conditions in a glasshouse (at 24/16° C., day/night; 14 hours light; 65% humidity) and watered twice daily. After 13 days the test was evaluated (100=total damage to plant; 0=no damage to plant).

[8] = system: Ipomea hederaceae (IPOHE); assay: as above; details: Ipomoea hederacea, 312 h
Method: as §1, with “8 days” for “one day”
as §3

Solanum nigrum (SOLNI) [9] = assay: as above; details: 312 h
Method: as §1, with “8 days” for “one day”
as §3

[10] = system: Echinochloa crus-galli (ECHCG); assay: as above; details: 312 h
Method: as §1, with “8 days” for “one day”
as §3

[11] = system: Amaranthus retoflexus (AMARE); assay: as above; details: Amaranthus retroflexus, 312 h
Method: as §1, with “8 days” for “one day”
as §3

[12] = system: Alopecurus myosuroides (ALOMY); assay: as above; details: 312 h
Method: as §1, with “8 days” for “one day”
as §3

[13] = pre-emergence, 1,000 g/ha, evaluated after 13 days (100=total damage; 0=no damage), read-out: Percentage damage SETFA
[14] = pre-emergence, 1,000 g/ha, evaluated after 13 days (100=total damage; 0=no damage), read-out: Percentage damage IPOHE
[15] = pre-emergence, 1,000 g/ha, evaluated after 13 days (100=total damage; 0=no damage), read-out: Percentage damage SOLNI
[16] = pre-emergence, 1,000 g/ha, evaluated after 13 days (100=total damage; 0=no damage), read-out: Percentage damage ECHCG
[17] = pre-emergence, 1,000 g/ha, evaluated after 13 days (100=total damage; 0=no damage), read-out: Percentage damage AMARE
[18] = pre-emergence, 1,000 g/ha, evaluated after 13 days (100=total damage; 0=no damage), read-out: Percentage damage ALOMY
[19] = post-emergence, 1,000 g/ha, evaluated after 13 days (100=total damage; 0=no damage), read-out: Percentage damage caused to weed species, SETFA
[20] = post-emergence, 1,000 g/ha, evaluated after 13 days (100=total damage; 0=no damage), read-out: Percentage damage caused to weed species, IPOHE
[21] = post-emergence, 1,000 g/ha, evaluated after 13 days (100=total damage; 0=no damage), read-out: Percentage damage caused to weed species, SOLNI
[22] = post-emergence, 1,000 g/ha, evaluated after 13 days (100=total damage; 0=no damage), read-out: Percentage damage caused to weed species, ECHCG
[23] = post-emergence, 1,000 g/ha, evaluated after 13 days (100=total damage; 0=no damage), read-out: Percentage damage caused to weed species, AMARE
[24] = post-emergence, 1,000 g/ha, evaluated after 13 days (100=total damage; 0=no damage), read-out: Percentage damage caused to weed species, ALOMY
[25] = pre-emergence, rate 1,000 g/ha, evaluated after 13 days (100=total damage to plant; 0=no damage), read-out: Percentage damage caused to weed species, SETFA
[26] = pre-emergence, rate 1,000 g/ha, evaluated after 13 days (100=total damage to plant; 0=no damage), read-out: Percentage damage caused to weed species, IPOHE
[27] = pre-emergence, rate 1,000 g/ha, evaluated after 13 days (100=total damage to plant; 0=no damage), read-out: Percentage damage caused to weed species, SOLNI
[28] = pre-emergence, rate 1,000 g/ha, evaluated after 13 days (100=total damage to plant; 0=no damage), read-out: Percentage damage caused to weed species, ECHCG
[29] = pre-emergence, rate 1,000 g/ha, evaluated after 13 days (100=total damage to plant; 0=no damage), read-out: Percentage damage caused to weed species, AMARE
[30] = pre-emergence, rate 1,000 g/ha, evaluated after 13 days (100=total damage to plant; 0=no damage), read-out: Percentage damage caused to weed species, ALOMY
[31] = Rate 1,000 g/ha, post-emergence spray, evaluated after 13 days (100=total damage to plant; 0=no damage to plant), read-out: Percentage damage caused to weed species, post-emergence, SETFA
[32] = Rate 1,000 g/ha, post-emergence spray, evaluated after 13 days (100=total damage to plant; 0=no damage to plant), read-out: Percentage damage caused to weed species, post-emergence, IPOHE
[33] = Rate 1,000 g/ha, post-emergence spray, evaluated after 13 days (100=total damage to plant; 0=no damage to plant), read-out: Percentage damage caused to weed species, post-emergence, SOLNI
[34] = Rate 1,000 g/ha, post-emergence spray, evaluated after 13 days (100=total damage to plant; 0=no damage to plant), read-out: Percentage damage caused to weed species, post-emergence, ECHCG
[35] = Rate 1,000 g/ha, post-emergence spray, evaluated after 13 days (100=total damage to plant; 0=no damage to plant), read-out: Percentage damage caused to weed species, post-emergence, AMARE
[36] = Rate 1,000 g/ha, post-emergence spray, evaluated after 13 days (100=total damage to plant; 0=no damage to plant), read-out: Percentage damage caused to weed species, post-emergence, ALOMY

Structure (SMILES) | pest or weed control at 1000 g/ha (Setaria faberi (SETFA) [1]; [13]) | pest or weed control at 1000 g/ha [2, 14] | pest or weed control at 1000 g/ha (Solanum nigrum (SOLNI) [3]; [15]) | pest or weed control at 1000 g/ha [4, 16] | pest or weed control at 1000 g/ha [5, 17] | pest or weed control at 1000 g/ha [6, 18] | pest or weed control at 1000 g/ha (Setaria faberi (SETFA) [7]; [19]) | pest or weed control at 1000 g/ha [8, 20] | pest or weed control at 1000 g/ha (Solanum nigrum (SOLNI) [9]; [21]) | pest or weed control at 1000 g/ha [10, 22] | pest or weed control at 1000 g/ha [11, 23] | pest or weed control at 1000 g/ha [12, 24] | pest or weed control at 1000 g/ha (Setaria faberi (SETFA) [1]; [25]) | pest or weed control at 1000 g/ha [2, 26] | pest or weed control at 1000 g/ha [4, 28] | pest or weed control at 1000 g/ha [6, 30] | pest or weed control at 1000 g/ha (Setaria faberi (SETFA) [7]; [31]) | pest or weed control at 1000 g/ha [8, 32] | pest or weed control at 1000 g/ha (Solanum nigrum (SOLNI) [9]; [33]) | pest or weed control at 1000 g/ha [10, 34] | other results
COC(=O)c1nc(C2CC2)nc(NCc2c(OC)cccc2OC)c1Cl [Compound 4-111, 5-Chloro-2-cyclopropyl-4-(2,6-dimethoxyphenyl-methylamino)-6-methoxycarbonyl-pyrimidine] | 40% | 80% | 60% | 50% | 90% | 20% | 80% | 100% | 100% | 60% | 100% | 30% |  |  |  |  |  |  |  |  | 
COC(=O)c1nc(C2CC2)nc(N(Cc2ccc(C)o2)C(C)C)c1Cl [Compound 146-135, 5-Chloro-2-cyclopropyl-6-methoxycarbonyl-4-[N-(5-methylfuran-2-ylmethyl)-N-prop-2-yl-amino]-pyrimidine] |  |  |  |  |  |  |  |  |  |  |  |  | 40% | 100% | 10% | 40% | 90% | 100% | 90% | 80% | pest or weed control at 1000 g/ha (Solanum nigrum (SOLNI) [3]; [27]): 100%; pest or weed control at 1000 g/ha [5, 29]: 100%; pest or weed control at 1000 g/ha [11, 35]: 100%; pest or weed control at 1000 g/ha [12, 36]: 40%
O=C(O)c1nc(-c2ccc(Cl)cc2)nc(NCc2ccco2)c1Cl [Compound 37-125, 5-Chloro-2-(4-chlorophenyl)-4-(furan-2-ylmethylamino)-pyrimidine-6-carboxylic acid] |  |  |  |  |  |  |  |  |  |  |  |  | 90% | 40% | 90% | 50% | 100% | 100% | 100% | 90% | pest or weed control at 1000 g/ha (Solanum nigrum (SOLNI) [3]; [27]): 100%; pest or weed control at 1000 g/ha [5, 29]: 100%; pest or weed control at 1000 g/ha [11, 35]: 100%; pest or weed control at 1000 g/ha [12, 36]: 70%
COC(=O)c1nc(C2CC2)nc(NCc2ncco2)c1Cl [Compound 4-148, 5-Chloro-2-cyclopropyl-6-methoxycarbonyl-4-(oxazol-2-ylmethylamino)-pyrimidine] | 20% | 100% | 90% | 30% | 80% | 20% | 50% | 60% | 80% | 40% | 100% | 20% |  |  |  |  |  |  |  |  | 
COC(=O)c1nc(C2CC2)nc(NCCCCc2ccccc2)c1Cl [Compound 4-253, 5-Chloro-2-cyclopropyl-6-methoxycarbonyl-4-(4-phenylbutyl-amino)pyrimidine] | 30% | 100% | 80% | 20% | 50% | 10% | 50% | 70% | 100% | 40% | 100% | 10% |  |  |  |  |  |  |  |  | 
COC(=O)c1nc(-c2ccc(OC)c(F)c2)nc(NCc2ccco2)c1Cl [Compound 253-48, 5-Chloro-2-(3-fluoro-4-methoxyphenyl)-4-(furan-2-yl-methyl-amino)-6-methoxy-carbonylpyrimidine] |  |  |  |  |  |  |  |  |  |  |  |  | 0% | 0% | 0% | 0% | 0% | 20% | 40% | 0% | pest or weed control at 1000 g/ha [11, 35]: 70%; pest or weed control at 1000 g/ha [12, 36]: 0%
COC(=O)c1nc(C2CC2)nc(NCC(F)c2cccc(Br)c2)c1Cl (stereo not shown) [Compound 4-235, 4-[2-(3-Bromophenyl)-2-fluoro-ethylamino]-5-chloro-2-cyclopropyl-6-methoxycarbonyl-pyrimidine] | 0% | 0% |  | 0% |  | 0% | 20% | 70% | 60% | 30% | 100% | 0% |  |  |  |  |  |  |  |  | 
COC(=O)c1nc(C2CC2)nc(NCCC2=CCCCC2)c1Cl [Compound 4-215, 5-Chloro-4-[2-(cyclohex-1-enyl)ethylamino]-2-cyclopropyl-6-methoxycarbonyl-pyrimidine] | 20% | 90% | 90% | 20% | 100% | 10% | 50% | 80% | 100% | 30% |  | 20% |  |  |  |  |  |  |  |  | 
